{"source": "PubChem BioAssay (NCI)", "test_in_all_cases": "NCI tumour cell line growth inhibition, 48 h", "key": {"[1]": {"test_system": "786-0 renal"}, "[2]": {"test_system": "A498 renal"}, "[3]": {"test_system": "A549 NSCLC"}, "[4]": {"test_system": "ACHN renal"}, "[5]": {"test_system": "BT-549 breast"}, "[6]": {"test_system": "CAKI-1 renal"}, "[7]": {"test_system": "CCRF-CEM leukemia"}, "[8]": {"test_system": "COLO 205 colon"}, "[9]": {"test_system": "DU-145 prostate"}, "[10]": {"test_system": "EKVX NSCLC"}, "[11]": {"test_system": "HCC-2998 colon"}, "[12]": {"test_system": "HCT-116 colon"}, "[13]": {"test_system": "HCT-15 colon"}, "[14]": {"test_system": "HL-60(TB) leukemia"}, "[15]": {"test_system": "HOP-62 NSCLC"}, "[16]": {"test_system": "HOP-92 NSCLC"}, "[17]": {"test_system": "HS 578T breast"}, "[18]": {"test_system": "HT29 colon"}, "[19]": {"test_system": "IGROV1 ovarian"}, "[20]": {"test_system": "K-562 leukemia"}, "[21]": {"test_system": "KM12 colon"}, "[22]": {"test_system": "LOX IMVI melanoma"}, "[23]": {"test_system": "M14 melanoma"}, "[24]": {"test_system": "MALME-3M melanoma"}, "[25]": {"test_system": "MCF7 breast"}, "[26]": {"test_system": "MDA-MB-231 breast"}, "[27]": {"test_system": "MDA-MB-435"}, "[28]": {"test_system": "MDA-N"}, "[29]": {"test_system": "MOLT-4 leukemia"}, "[30]": {"test_system": "NCI-H226 lung"}, "[31]": {"test_system": "NCI-H23 lung"}, "[32]": {"test_system": "NCI-H460 lung"}, "[33]": {"test_system": "NCI-H522 lung"}, "[34]": {"test_system": "NCI/ADR-RES ovarian"}, "[35]": {"test_system": "OVCAR-3 ovarian"}, "[36]": {"test_system": "OVCAR-4 ovarian"}, "[37]": {"test_system": "OVCAR-5 ovarian"}, "[38]": {"test_system": "OVCAR-8 ovarian"}, "[39]": {"test_system": "PC-3 prostate"}, "[40]": {"test_system": "RPMI-8226 leukemia"}, "[41]": {"test_system": "RXF 393 renal"}, "[42]": {"test_system": "SF-268 CNS"}, "[43]": {"test_system": "SF-295 CNS"}, "[44]": {"test_system": "SF-539 CNS"}, "[45]": {"test_system": "SK-MEL-2 melanoma"}, "[46]": {"test_system": "SK-MEL-28 melanoma"}, "[47]": {"test_system": "SK-OV-3 ovarian"}, "[48]": {"test_system": "SN12C renal"}, "[49]": {"test_system": "SNB-19 CNS"}, "[50]": {"test_system": "SNB-75 CNS"}, "[51]": {"test_system": "SW-620 colon"}, "[52]": {"test_system": "T-47D breast"}, "[53]": {"test_system": "TK-10 renal"}, "[54]": {"test_system": "U251 CNS"}, "[55]": {"test_system": "UACC-257 melanoma"}, "[56]": {"test_system": "UACC-62 melanoma"}}, "note": "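All cell lines were grown in 96-well plates and treated with compound for 48 hours. TGI is the concentration that stops growth completely.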"}
{"smiles": "O=C1c2[nH]c3ccccc3c2CCN2CCCCC12", "note": "(stereo unspecified)", "values": [{"measurement": "TGI", "setting": "[1]", "value": 56.9, "unit": "µM"}, {"measurement": "TGI", "setting": "[2]", "value": 78.3, "unit": "µM"}, {"measurement": "TGI", "setting": "[3]", "value": 76.3, "unit": "µM"}, {"measurement": "TGI", "setting": "[4]", "value": 46, "unit": "µM"}, {"measurement": "TGI", "setting": "[5]", "value": 65.8, "unit": "µM"}, {"measurement": "TGI", "setting": "[6]", "value": "> 100", "unit": "µM"}, {"measurement": "TGI", "setting": "[7]", "value": 57.3, "unit": "µM"}, {"measurement": "TGI", "setting": "[8]", "value": 34.9, "unit": "µM"}, {"measurement": "TGI", "setting": "[9]", "value": "> 100", "unit": "µM"}, {"measurement": "TGI", "setting": "[10]", "value": 53.7, "unit": "µM"}, {"measurement": "TGI", "setting": "[11]", "value": 33.2, "unit": "µM"}, {"measurement": "TGI", "setting": "[12]", "value": 54.6, "unit": "µM"}, {"measurement": "TGI", "setting": "[13]", "value": "> 100", "unit": "µM"}, {"measurement": "TGI", "setting": "[14]", "value": 13.3, "unit": "µM"}, {"measurement": "TGI", "setting": "[15]", "value": "> 100", "unit": "µM"}, {"measurement": "TGI", "setting": "[16]", "value": 41.8, "unit": "µM"}, {"measurement": "TGI", "setting": "[17]", "value": 71.8, "unit": "µM"}, {"measurement": "TGI", "setting": "[18]", "value": "> 100", "unit": "µM"}, {"measurement": "TGI", "setting": "[19]", "value": 56, "unit": "µM"}, {"measurement": "TGI", "setting": "[20]", "value": 95.3, "unit": "µM"}, {"measurement": "TGI", "setting": "[21]", "value": 32.4, "unit": "µM"}, {"measurement": "TGI", "setting": "[22]", "value": 44.9, "unit": "µM"}, {"measurement": "TGI", "setting": "[23]", "value": 35.3, "unit": "µM"}, {"measurement": "TGI", "setting": "[24]", "value": 46.5, "unit": "µM"}, {"measurement": "TGI", "setting": "[25]", "value": "> 100", "unit": "µM"}, {"measurement": "TGI", "setting": "[26]", "value": 41.3, "unit": "µM"}, {"measurement": "TGI", "setting": "[27]", "value": 31, "unit": "µM"}, {"measurement": "TGI", "setting": "[28]", "value": 39.6, "unit": "µM"}, {"measurement": "TGI", "setting": "[29]", "value": 56.7, "unit": "µM"}, {"measurement": "TGI", "setting": "[30]", "value": 48.8, "unit": "µM"}, {"measurement": "TGI", "setting": "[31]", "value": 63.7, "unit": "µM"}, {"measurement": "TGI", "setting": "[32]", "value": "> 100", "unit": "µM"}, {"measurement": "TGI", "setting": "[33]", "value": 39.8, "unit": "µM"}, {"measurement": "TGI", "setting": "[34]", "value": 59, "unit": "µM"}, {"measurement": "TGI", "setting": "[35]", "value": 37.1, "unit": "µM"}, {"measurement": "TGI", "setting": "[36]", "value": 96.5, "unit": "µM"}, {"measurement": "TGI", "setting": "[37]", "value": 44.1, "unit": "µM"}, {"measurement": "TGI", "setting": "[38]", "value": 65.9, "unit": "µM"}, {"measurement": "TGI", "setting": "[39]", "value": 35.7, "unit": "µM"}, {"measurement": "TGI", "setting": "[40]", "value": 42.6, "unit": "µM"}, {"measurement": "TGI", "setting": "[41]", "value": 61.2, "unit": "µM"}, {"measurement": "TGI", "setting": "[42]", "value": 78.9, "unit": "µM"}, {"measurement": "TGI", "setting": "[43]", "value": 90.2, "unit": "µM"}, {"measurement": "TGI", "setting": "[44]", "value": 40.2, "unit": "µM"}, {"measurement": "TGI", "setting": "[45]", "value": 36.3, "unit": "µM"}, {"measurement": "TGI", "setting": "[46]", "value": "> 100", "unit": "µM"}, {"measurement": "TGI", "setting": "[47]", "value": "> 100", "unit": "µM"}, {"measurement": "TGI", "setting": "[48]", "value": "> 100", "unit": "µM"}, {"measurement": "TGI", "setting": "[49]", "value": 61.7, "unit": "µM"}, {"measurement": "TGI", "setting": "[50]", "value": 73.5, "unit": "µM"}, {"measurement": "TGI", "setting": "[51]", "value": 65.9, "unit": "µM"}, {"measurement": "TGI", "setting": "[52]", "value": 74.9, "unit": "µM"}, {"measurement": "TGI", "setting": "[53]", "value": 72.4, "unit": "µM"}, {"measurement": "TGI", "setting": "[54]", "value": 38.3, "unit": "µM"}, {"measurement": "TGI", "setting": "[55]", "value": 39.5, "unit": "µM"}, {"measurement": "TGI", "setting": "[56]", "value": 37, "unit": "µM"}]}
